In ChEMBL document CHEMBL3714751, “Diaminopyrimidines as P2X3 and P2X2/3 modulators” (2009):
Calls of active or inactive are those of the source. The calls are words filed in the database; no cut-off is given here.

Assays:
[1] = biological target: T1, P2X purinoceptor 3 (Rattus norvegicus) (UniProt P49654); assay: Antagonist activity against rat P2X3 receptor expressed in CHOK1 cells assessed as inhibition of alpha,beta-meATP-induced calcium response incubated for 20 mins by Fluo-3AM dye based FLIPR assay; type: functional, cell-based; settings: CHO-K1
T1 sequence (whole entry): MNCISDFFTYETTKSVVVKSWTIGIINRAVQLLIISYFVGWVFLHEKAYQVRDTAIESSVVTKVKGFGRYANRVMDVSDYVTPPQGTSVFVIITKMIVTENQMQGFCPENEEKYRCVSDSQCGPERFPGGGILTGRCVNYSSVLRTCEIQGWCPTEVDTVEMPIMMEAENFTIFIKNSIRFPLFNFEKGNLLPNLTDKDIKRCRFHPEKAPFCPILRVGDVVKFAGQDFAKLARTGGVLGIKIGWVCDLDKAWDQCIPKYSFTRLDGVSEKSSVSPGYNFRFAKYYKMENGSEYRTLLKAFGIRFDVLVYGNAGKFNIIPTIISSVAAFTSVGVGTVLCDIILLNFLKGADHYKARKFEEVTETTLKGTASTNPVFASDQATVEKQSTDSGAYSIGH

Canis familiaris [2] = assay: AUC in dog assessed as 5-(5-Iodo-2-iso-propyl-4-methoxy-phenoxy)-pyrimidine-2,4-diamine level at 0.127 mmol administered orally by gavage after 24 hrs by HPLC method; type: ADME, organism-based, Canis lupus familiaris; parameters: dose 0.127 mmol, time < 24 hr, route oral; settings: in vivo, po
Canis familiaris [3] = assay: Cmax in dog assessed as 5-(5-Iodo-2-iso-propyl-4-methoxy-phenoxy)-pyrimidine-2,4-diamine level at 0.127 mmol administered orally by gavage after 24 hrs by HPLC method; type: ADME, organism-based, Canis lupus familiaris; parameters: dose 0.127 mmol, route oral; settings: in vivo, po

Row | Structure (SMILES) | inhibition [1] | AUC (Canis familiaris [2]) [ng·h/mL] | Cmax (Canis familiaris [3]) [ng/mL]
1 | COc1cc(C(C)C)c(Oc2cnc(NC(=O)CNC3CCC(C)CC3)nc2N)cc1I (stereo not drawn) | Active |  | 
2 | C#Cc1cc(Oc2cnc(NC(=O)CN3CCN(C)CC3)nc2N)c(C(C)C)cc1OC | Active |  | 
3 | COc1cc(C(C)C)c(Oc2cnc(NC(=O)CNC3CCCC3)nc2N)cc1I | Active |  | 
4 | COc1cc(C(C)C)c(Oc2cnc(NC(=O)CN3CCOCC3)nc2N)cc1I | Active |  | 
5 | COc1cc(C(C)C)c(Oc2cnc(NC(=O)CN(C)C3CCCCC3)nc2N)cc1I | Active |  | 
6 | COc1cc(C(C)C)c(Oc2cnc(NC(=O)CN3CCN(CCCO)CC3)nc2N)cc1I | Active |  | 
7 | COc1cc(C(C)C)c(Oc2cnc(NC(=O)CN3CCNCC3)nc2N)cc1I | Active |  | 
8 | COc1cc(C(C)C)c(Oc2cnc(NC(=O)CN3CCC(N)CC3)nc2N)cc1I | Active |  | 
9 | COc1cc(C(C)C)c(Oc2cnc(NC(=O)CN3CC(C)OC(C)C3)nc2N)cc1I (stereo not drawn) | Active |  | 
10 | COc1cc(C(C)C)c(Oc2cnc(NC(=O)CN3CCCCC3)nc2N)cc1I | Active |  | 
11 | COc1cc(C(C)C)c(Oc2cnc(NC(=O)CN3CCC(C(C)=O)CC3)nc2N)cc1I | Active |  | 
12 | COCCNCC(=O)Nc1ncc(Oc2cc(I)c(OC)cc2C(C)C)c(N)n1 | Active |  | 
13 | CCCN(CCC)CC(=O)Nc1ncc(Oc2cc(I)c(OC)cc2C(C)C)c(N)n1 | Active | 372 | 120
14 | COc1cc(C(C)C)c(Oc2cnc(NC(=O)CN3CCCC3)nc2N)cc1I | Active |  | 
15 | COc1cc(C(C)C)c(Oc2cnc(NC(=O)CNCC(C)C)nc2N)cc1I | Active |  | 
16 | COc1cc(C(C)C)c(Oc2cnc(NC(=O)CN3CCN(C)CC3)nc2N)cc1I | Active |  | 
17 | COc1cc(C(C)C)c(Oc2cnc(NC(=O)CN(C)C)nc2N)cc1I | Active |  | 
18 | COc1cc(C(C)C)c(Oc2cnc(NC(=O)CNC3CCN(C)CC3)nc2N)cc1I | Active |  | 
19 | CCN(CCCCO)CC(=O)Nc1ncc(Oc2cc(I)c(OC)cc2C(C)C)c(N)n1 | Active |  | 
20 | COc1cc(C(C)C)c(Oc2cnc(NC(=O)CN3CCN(CCO)CC3)nc2N)cc1I | Active |  | 
21 | COc1cc(C(C)C)c(Oc2cnc(NC(=O)CNCC3CC3)nc2N)cc1I | Active |  | 
22 | COc1cc(C(C)C)c(Oc2cnc(NC(=O)CNC(C)(C)C)nc2N)cc1I | Active |  | 
23 | CCC(CC)NCC(=O)Nc1ncc(Oc2cc(I)c(OC)cc2C(C)C)c(N)n1 | Active |  | 
24 | CCCNCC(=O)Nc1ncc(Oc2cc(I)c(OC)cc2C(C)C)c(N)n1 | Active |  | 
25 | COc1cc(C(C)C)c(Oc2cnc(NC(=O)CNC3CCCCC3)nc2N)cc1I | Active |  | 
26 | COc1cc(C(C)C)c(Oc2cnc(NC(=O)CNC3CCC3)nc2N)cc1I | Active |  | 
